From patent publication US10053431B2, “Tetrahydro-benzodiazepinones” (priority 2013, dated 2018)
Counter-ions that a name gives are not always drawn. Like-named read-outs stand apart in the source and are kept apart here.

Tests used:
[1] = molecular target: BIR3 domain of XIAP (Homo sapiens (Human), UniProt P98170); experiment: TR-FRET assay for BIR3 (inhibition of binding of XIAP BIR3 domain to SMAC-derived Peptide A)
[2] = molecular target: BIR2 domain of XIAP (Homo sapiens (Human), UniProt P98170, C202A/C213G); experiment: TR-FRET assay for BIR2 (inhibition of binding of XIAP BIR2 domain to SMAC-derived Peptide A); details: 6x His-tagged BIR2 domain (aa 124-240 of XIAP) 10 nM, Peptide A 20 nM, TR-FRET; read-out: IC50 BIR2
[3] = 6x His-tagged BIR3 domain (aa 241-356 of XIAP) 10 nM, Peptide A 20 nM, TR-FRET

Sequence of BIR2 domain of XIAP (P98170 124-240 with tags or gaps C202A/C213G limits assumed): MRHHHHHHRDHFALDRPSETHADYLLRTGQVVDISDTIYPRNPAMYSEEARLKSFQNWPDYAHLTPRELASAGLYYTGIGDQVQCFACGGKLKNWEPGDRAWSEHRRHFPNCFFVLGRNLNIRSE
Sequence of BIR3 domain of XIAP (P98170 241-356 with tags or gaps limits assumed): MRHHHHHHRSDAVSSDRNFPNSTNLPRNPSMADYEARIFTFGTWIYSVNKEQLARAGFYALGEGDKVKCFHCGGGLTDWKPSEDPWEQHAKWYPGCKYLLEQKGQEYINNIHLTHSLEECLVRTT

Compound | IC50 [1, 3] | IC50 [2] | IC50 [1]
CN[C@@H](C)C(=O)N[C@H]1CN(C(=O)CN2CCN(C)CC2)c2ccccc2N(Cc2c(C)ccc3ccccc23)C1=O [Example 12, (S)-2-methylamino-N—{(S)-1(2-methyl-naphthalen-1-ylmethyl)-5-[2-(4-methyl-piperazin-1-yl)-acetyl]-2-oxo-2,3,4,5-tetrahydro-1H-benzo[b][1,4]diazepin-3-yl}-propionamide hydrochloride] | > 54800 nM | 820 nM | –
CN[C@@H](C)C(=O)N[C@H]1CN(C(=O)c2ccc(S(C)(=O)=O)cc2)c2ccccc2N(Cc2c(C)ccc3ccccc23)C1=O [Example 13c] | > 54800 nM | 119 nM | –
CN[C@@H](C)C(=O)N[C@H]1CN(C(=O)CCCCC(=O)OC)c2ccccc2N(Cc2c(C)ccc3ccccc23)C1=O [Example 13e] | > 54800 nM | 308 nM | –
CN[C@@H](C)C(=O)N[C@H]1CN(C(=O)c2ccc(C(C)=O)cc2)c2ccccc2N(Cc2c(C)ccc3ccccc23)C1=O [Example 13f] | > 54800 nM | 54 nM | –
CN[C@@H](C)C(=O)N[C@H]1CN(C(=O)c2cc(OC)c(OC)c(OC)c2)c2ccccc2N(Cc2c(C)ccc3ccccc23)C1=O [Example 13g] | > 54800 nM | 481 nM | –
CN[C@@H](C)C(=O)N[C@H]1CN(C(=O)CCNC(=O)OCC2c3ccccc3-c3ccccc32)c2ccccc2N(Cc2c(OC)ccc3cc(C(=O)OC)ccc23)C1=O [Example 13r] | 46700 nM | 17 nM | –
CN[C@@H](C)C(=O)N[C@H]1CN(C(=O)CCC(=O)O)c2ccccc2N(Cc2c(C)ccc3ccccc23)C1=O [Example 16, 4-[(S)-3-((S)-2-Methylamino-propionylamino)-5-(2-methyl-naphthalen-1-ylmethyl)-4-oxo-2,3,4,5-tetrahydro-benzo[b][1,4]diazepin-1-yl]-4-oxo-butyric acid hydrochloride] | > 54800 nM | 126 nM | –
CNC(=O)N1C[C@H](NC(=O)[C@H](C)NC)C(=O)N(Cc2c(C)ccc3ccccc23)c2ccccc21 [Example 17, (S)-3-((S)-2-Methylamino-propionylamino)-5-(2-methyl-naphthalen-1-ylmethyl)-4-oxo-2,3,4,5-tetrahydro-benzo[b][1,4]diazepine-1-carboxylic acid methylamide hydrochloride] | – | 1430 nM | > 54800 nM
CN[C@@H](C)C(=O)N[C@H]1CN(S(=O)(=O)CS(C)(=O)=O)c2ccccc2N(Cc2c(C)ccc3ccccc23)C1=O [Example 18, (S)—N—[(S)-5-Methanesulfonylmethanesulfonyl-1-(2-methyl-naphthalen-1-ylmethyl)-2-oxo-2,3,4,5-tetrahydro-1H-benzo[b][1,4]diazepin-3-yl]-2-methylamino-propionamide trifluoroacetate] | > 54800 nM | 590 nM | –
CN[C@@H](C)C(=O)N[C@H]1CN(S(C)(=O)=O)c2ccccc2N(Cc2c(C)ccc3ccccc23)C1=O [Example 19, (S)—N—[(S)-5-methanesulfonyl-1-(2-methyl-naphthalen-1-ylmethyl)-2-oxo-2,3,4,5-tetrahydro-1H-benzo[b][1,4]diazepin-3-yl]-2-methylamino-propionamide hydrochloride] | > 54800 nM | 620 nM | –
CN[C@@H](C)C(=O)N[C@H]1CN(C(=O)OC)c2ccccc2N(Cc2c(C)ccc3ccccc23)C1=O [Example 20, ((S)-3-((S)-2-Methylamino-propionylamino)-5-(2-methyl-naphthalen-1-ylmethyl)-4-oxo-2,3,4,5-tetrahydro-benzo[b][1,4]diazepine-1-carboxylic acid methyl ester hydrochloride] | > 54800 nM | 588 nM | –
CN[C@@H](C)C(=O)N[C@H]1CN(C(=O)c2ccc(C(C)=O)cc2)c2ccccc2N(CCc2cccc3ccccc23)C1=O [Example 40, (S)—N—((S)-5-(4-acetylbenzoyl)-1-(2-(naphthalen-1-yl)ethyl)-2-oxo-2,3,4,5-tetrahydro-1H-benzo[b][1,4]diazepin-3-yl)-2-(methylamino)propanamide] | 7420 nM | 173 nM | –
CN[C@@H](C)C(=O)N[C@H]1CN(C(=O)c2ccc(NC(C)=O)cc2)c2ccccc2N(Cc2c(OC)ccc3ccccc23)C1=O [Example 42, (S)—N—[(S)-5-(4-Acetylamino-benzoyl)-1-(2-methoxy-naphthalen-1-ylmethyl)-2-oxo-2,3,4,5-tetrahydro-1H-benzo[b][1,4]diazepin-3-yl]-2-methylamino-propionamide hydrochloride] | > 54800 nM | 37 nM | –
CN[C@@H](C)C(=O)N[C@H]1CN(C(=O)c2ccc(C(C)=O)cc2)c2ccccc2N(Cc2c(OC)ccc3cc(C(=O)OC)ccc23)C1=O [Example 43, 5-[(S)-5-(4-Acetyl-benzoyl)-3-((S)-2-methylamino-propionylamino)-2-oxo-2,3,4,5-tetrahydro-benzo[b][1,4]diazepin-1-ylmethyl]-6-methoxy-naphthalen-2-carboxylic acid methyl ester hydrochloride] | 44100 nM | 57 nM | –
CN[C@@H](C)C(=O)N[C@H]1CN(C(=O)c2ccc(C(C)=O)cc2)c2ccccc2N(Cc2c(OC)ccc3cc(C(=O)O)ccc23)C1=O [Example 44, 5-[[(3S)-1-(4-acetylbenzoyl)-3-[[(2S)-2-(methylamino)propanoyl]amino]-4-oxo-2,3-dihydro-1,5-benzodiazepin-5-yl]methyl]-6-methoxy-naphthalene-2-carboxylic acid; hydrochloride] | 17400 nM | 16 nM | –
CN[C@@H](C)C(=O)N[C@H]1CN(C(=O)CCCC(C)=O)c2ccccc2N(Cc2c(OC)ccc3cc(C(=O)O)ccc23)C1=O [Example 47, 6-Methoxy-5-[(S)-3 ((S)-2-methylamino-propionylamino)-2-oxo-5-(5-oxo-hexanoyl)-2,3,4,5-tetrahydro-benzo[b][1,4]diazepin-1-ylmethyl]-naphthalene-2-carboxylic acid hydrochloride] | 44600 nM | 20 nM | –
CN[C@@H](C)C(=O)N[C@H]1CN(C(=O)CCCNC(=O)OCC2c3ccccc3-c3ccccc32)c2ccccc2N(Cc2c(OC)ccc3cc(C(=O)OC)ccc23)C1=O [Example 48, 5-[(S)-5-[4-(9H-Fluoren-9-ylmethoxycarbonylamino)-butyryl]-3-((S)-2-methylamino-propionylamino)-2-oxo-2,3,4,5-tetrahydro-benzo[b][1,4]diazepin-1-ylmethyl]-6-methoxy-naphthalene-2-carboxylic acid methyl ester hydrochloride] | 33200 nM | 23 nM | –
CN[C@@H](C)C(=O)N[C@H]1CN(C(=O)CCCN)c2ccccc2N(Cc2c(OC)ccc3cc(C(=O)OC)ccc23)C1=O [Example 49, 5-[(S)-5-(4-Amino-butyryl)-3-((S)-2-methylamino-propionylamino)-2-oxo-2,3,4,5-tetrahydro-benzo[b][1,4]diazepin-1-ylmethyl]-6-methoxy-naphthalene-2-carboxylic acid methyl ester hydrochloride] | > 54800 nM | 127 nM | –
CN[C@@H](C)C(=O)N[C@H]1CN2C(=O)CCCNC(=O)c3ccc4c(c(OC)ccc4c3)CN(C1=O)c1ccccc12 [Example 51, Cyclic-5-[(S)-5-(4-Amino-butyryl)-3-((S)-2-methylamino-propionylamino)-2-oxo-2,3,4,5-tetrahydro-benzo[b][1,4]diazepin-1-ylmethyl]-6-methoxy-naphthalene-2-carboxylic amide hydrochloride] | 42800 nM | 58 nM | –
CN[C@@H](C)C(=O)N[C@H]1CN2C(=O)CCCCNC(=O)c3ccc4c(c(OC)ccc4c3)CN(C1=O)c1ccccc12 [Example 54, Cyclic-5-[(S)-5-(5-amino-pentanoyl)-3-((S)-2-methylamino-propionylamino)-2-oxo-2,3,4,5-tetrahydro-benzo[b][1,4]diazepin-1-ylmethyl]-6-methoxy-naphthalene-2-carboxylic amide hydrochloride] | 16000 nM | 18 nM | –
CN[C@@H](C)C(=O)N[C@H]1CN(C(=O)c2ccc(NC(=O)OCC3c4ccccc4-c4ccccc43)cc2)c2ccccc2N(Cc2c(OC)ccc3cc(C(=O)OC)ccc23)C1=O [Example 55, 5-[(S)-5-[4-(9H-Fluoren-9-ylmethoxycarbonylamino)-benzoyl]-3-((S)-2-methylamino-propionylamino)-2-oxo-2,3,4,5-tetrahydro-benzo[b][1,4]diazepin-1-ylmethyl]-6-methoxy-naphthalene-2-carboxylic acid methyl ester hydrochloride] | > 54800 nM | 22 nM | –
CN[C@@H](C)C(=O)N[C@H]1CN(C(=O)c2ccc(N)cc2)c2ccccc2N(Cc2c(OC)ccc3cc(C(=O)O)ccc23)C1=O [Example 57, 5-(((S)-5-(4-aminobenzoyl)-3-((S)-2-(methylamino)propanamido)-2-oxo-2,3,4,5-tetrahydro-1H-benzo[b][1,4]diazepin-1-yl)methyl)-6-methoxy-2-naphthoic acid hydrochloride] | 20800 nM | 7 nM | –
CN[C@@H](C)C(=O)N[C@H]1CN2CCNC(=O)c3ccc4c(c(OC)ccc4c3)CN(C1=O)c1ccccc12 [Example 59, Cyclic-5-[(S)-5-(2-Amino-ethyl)-3-((S)-2-methylamino-propionylamino)-2-oxo-2,3,4,5-tetrahydro-benzo[b][1,4]diazepin-1-ylmethyl]-6-methoxy-naphthalene-2-carboxylic amide hydrochloride] | 31400 nM | 3780 nM | –
CN[C@@H](C)C(=O)N[C@H]1CN(C(=O)CCCCC(=O)O)c2ccccc2N(Cc2c(C)ccc3ccccc23)C1=O [Example 60, 6-((S)-3-((S)-2-(methylamino)propanamido)-5-((2-methylnaphthalen-1-yl)methyl)-4-oxo-2,3,4,5-tetrahydro-1H-benzo[b][1,4]diazepin-1-yl)-6-oxohexanoic acid hydrochloride] | > 54800 nM | 166 nM | –
